Measurements: US6479493B1, “Methods for treatment of type I diabetes” (Cell Pathways, Inc., priority 2001, dated 2002)
Counter-ions that a name gives are not always drawn.

Legend:
PDE4 = assay: PDE inhibition, similar protocols; format: biochemical
rats [1] = assay: 91-day long-term safety assessment study in rats; format: in vivo, rat
From the text: These changes were not associated with any gross clinical abnormality.

rats [2] = assay: acute toxicity study in rats; settings: rat, in vivo
[3] = tested on: TNF-α secreted by TPA-induced U937 cells; assay: TNF-α immunoassay on media of TPA-treated U937 cells; format: cell-based; settings: cell culture media (FIG. 12)
Protocol: One function of macrophages is to modulate the activity of other inflammatory cells through various cytokine molecules.
TNF-α levels in the cell culture media were determined by using the TNF-α Immunoassay from R&D Systems (Cat. #DTA50) according to the manufacturer's protocol.

[4] = biological target: T1, cGMP binding sites of the GST-cGB-PDE5 fusion protein (Homo sapiens, UniProt O76074); assay: cGMP binding assay with GST-cGB-PDE5 fusion protein; settings: 3H-cGMP 2 μM, 22° C., 1 hour
T1 construct: made in house; host or cells: E. coli BL21 (DE3)
From the text: RT-PCR method is used to obtain the cGB domain of PDE5 with forward and reverse primers designed from bovine PDE5A cDNA sequence (McAllister-Lucas L. M. et al, J. Biol. Chem. 268, 22863-22873, 1993) and the selection among PDE 1-10 families. 5′-3′, Inc. kits for total RNA followed by oligo (dT) column purification of mRNA are used with HT-29 cells. […] It is then cloned into pGEX-5X-3 glutathione-S-ransferase (GST) fusion vector (Pharmacia Biotech )with tac promoter, and EcoRI and XhoI cut sites. The fusion vector is then transfected into E. Coli BL21 (DE3) bacteria (Invitrogen). The transfected BL21 bacteria is grown to log phase, and then IPTG is added as an inducer. The induction is carried at 20° C. for 24 hrs. The bacteria are harvested and lysed. The soluble cell lysate is incubated with GSH conjugated Sepharose 4B (GSH-Sepharose 4B). The GST-cGB-pDE5 fusion protein can bind to the GSH-Sepharose beads, and the other proteins are washed off from beads with excessive cold PBS.
Then, the mixture is transferred to Brandel MB-24 cell harvester with GF/B as the filter membrane followed by 2 washes with 10 mL of cold 5 mM potassium buffer(pH 6.8). The membranes are then cut out and transferred to scintillation vials followed by the addition of 1 mL of H2O and 6 mL of Ready Safe™ liquid scintillation cocktail to each vial. The vials are counted on a Beckman LS 6500 scintillation counter.
The quenching by filter membrane or other debris are also calibrated.

PDE1 = assay: PDE inhibition, similar protocols; format: biochemical
dogs [5] = assay: 91-day oral study in dogs; format: in vivo, dog
dogs [6] = assay: acute / seven-dose toxicity in dogs; settings: dog, in vivo
Protocol: Therefore, these dogs were subsequently administered seven consecutive doses of 1000 mg/kg/day.

PDE 5 = PDE 5 (Homo sapiens, UniProt O76074); assay: competitive binding (with cGMP) to PDE5
[7] = 91 days, highest dose group (300 mg/kg/day)

With CC1=C(CC(=O)NCc2ccccc2)c2cc(F)ccc2/C1=C\c1ccncc1 [Example 38, (Z)-5-Fluoro-2-methyl-(4-pyridylidene)-3-(N-benzyl)indenylacetamide Hydrochloride] the IC50 (PDE4) was 6 µM, the “clinical biochemistry and hematology” value (rats [1]; 91 days) was “no changes in clinical biochemistry and hematology were evident” and the “microscopic finding, follicular cells” value (rats [1]; 91 days, 500 mg/kg/day) was “follicular cell hypertrophy”. For the same compound, the “microscopic finding, kidneys” value (rats [1]; 91 days, 200 and 500 mg/kg/day) was “increase in accumulation of hyalin droplets in the kidneys”, the “microscopic finding, liver” value (rats [1]; 91 days, 200 and 500 mg/kg/day) was “slight hepatocellular hypertrophy” and the “liver and thyroid/parathyroid weights” value (rats [1]; 91 days, males and females at 200 and 500 mg/kg/day) was “dose-related trend to increased liver and thyroid/parathyroid weights”. The toxicological effects overall (rats [1]; oral, 91 days, 50, 200 and 500 mg/kg/day) was “did not produce any major toxicological effects”, the body weight gain (rats [2]; ip, 1000 mg/kg) was “reduced body weight gain” and the necropsy findings (rats [2]; ip, 1000 mg/kg) was “mesenteric adhesions seen in some animals”. For the same compound, the body weight gains (rats [2]; po, 2000 mg/kg) was “slightly reduced”, the “level of TNF-α secreted” value [3] was “significantly reduced” and the “competition with cGMP in binding to the cGMP binding sites of GST-cGB-PDE5” value [4] was “does not bind to the cGMP-binding site of PDE5”. For the same compound, the IC50 (PDE1) was 3 µM, the feces observation (dogs [5]; 91 days, 150 and 300 mg/kg/day) was “Orange discoloration of the feces” and the “microscopic alterations (liver)” value (dogs [5]; 91 days, highest dose group) was “no microscopic alterations”. The body weights (dogs [5]; [7]) was “Slightly lowered body weights”, the liver weights (dogs [5]; [7]) was “increased liver weights” and the “route of elimination (suggested by feces colour)” value (dogs [5]; oral, 91 days) was “most of Compound 38 was being eliminated via the feces”. The toxicological effects overall (dogs [5]; oral, 91 days, 50, 150 and 300 mg/kg/day) was “no toxicological effects”, the signs of toxicity (dogs [6]; 1000 mg/kg) was “no signs of toxicity” and the “signs of drug-related effects” value (dogs [6]; 1000 mg/kg/day) was “At no time in either dosing phase were any obvious signs of drug-related effects observed”. The “competitive (with cGMP) binding to PDE 5” value (PDE 5) was “does competitively (with cGMP) bind to PDE 5”.
